In patent US20230136562A1, “SPIROUREA DERIVATIVES” (Idorsia Pharmaceuticals Ltd, priority 2020, published 2023):
Like-named read-outs stand apart in the source and are kept apart here.

System: primary neuronal cultures from embryonic rat brains
Assay: Rat oscillation assay (FLIPR, neuronal calcium oscillations)
Format: cell-based
How it was run: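 Cortical neurons from E18 Wistar rat embryos, cultured 8–10 days at high density, loaded with 1 μM Fluo-8 AM; calcium oscillations recorded by FLIPR once per second in Mg-free HBSS with 2 mM CaCl2, 20 mM HEPES, pH 7.4. Two acquisitions ("Acute", 500 sec, compound added at 250 sec; "20 min"), ± Kv7 blocker XE-991.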

[1] = Rattus norvegicus, 20 min, AUC of fluorescence measured 20 min after compound addition, read-out: FLIPR: IC50 [nM] 20 min
[2] = Rattus norvegicus, Acute phase, ratio of AUC fluorescence before and after compound addition, read-out: FLIPR: IC50 [nM] acute
[3] = Acute phase, ratio of AUC fluorescence before and after compound addition, read-out: FLIPR: IC50 [nM] acute

| Compound | IC50 [1] | IC50 [2] | IC50 (AUC of fluorescence measured 20 min after compound addition, read-out: FLIPR: IC50 [nM] 20 min) | IC50 [3] |
| --- | --- | --- | --- | --- |
| CC(NC(=O)NC1CC2(CC2)C1)c1cc(OCC(F)(F)F)ccc1F (racemic) [Example 129, (±)-1-{1-[2-Fluoro-5-(2,2,2-trifluoro-ethoxy)-phenyl]-ethyl}-3-spiro[2.3]hex-5-yl-urea] | 254 nM | 212 nM |  |  |
| CC(NC(=O)NC1CC2(CC2)C1)c1cccc(OCC(F)(F)F)c1F (racemic) [Example 131, (±)-1-{1-[2-Fluoro-3-(2,2,2-trifluoro-ethoxy)-phenyl]-ethyl}-3-spiro[2.3]hex-5-yl-urea] | 52 nM | 29 nM |  |  |
| CC(NC(=O)NC1CC2(CC2)C1)c1cc(F)cc(OCC(F)(F)F)c1 (racemic) [Example 132, (±)-1-{1-[3-Fluoro-5-(2,2,2-trifluoro-ethoxy)-phenyl]-ethyl}-3-spiro[2.3]hex-5-yl-urea] | 110 nM | 79 nM |  |  |
| COc1c(C(C)NC(=O)NC2CC3(CC3)C2)cccc1C(F)(F)F (racemic) [Example 133, (±)-1-[1-(2-Methoxy-3-trifluoromethyl-phenyl)-ethyl]-3-spiro[2.3]hex-5-yl-urea] | 670 nM | 396 nM |  |  |
| CC(Oc1cccc(C2(NC(=O)NC3CC4(CC4)C3)CC2)c1)C(F)(F)F (racemic) [Example 135, (±)-1-Spiro[2.3]hex-5-yl-3-{1-[3-(2,2,2-trifluoro-1-methyl-ethoxy)-phenyl]-cyclopropyl}-urea] | 115 nM | 133 nM |  |  |
| COc1ccc(C(F)(F)F)cc1C(C)NC(=O)NC1CC2(CC2)C1 (racemic) [Example 137, (±)-1-[1-(2-Methoxy-5-trifluoromethyl-phenyl)-ethyl]-3-spiro[2.3]hex-5-yl-urea] | 1020 nM | 1240 nM |  |  |
| O=C(NC1CC2(CC2)C1)NC(CCO)c1cccc(OC(F)(F)F)c1 (racemic) [Example 138, (±)-1-[3-Hydroxy-1-(3-trifluoromethoxy-phenyl)-propyl]-3-spiro[2.3]hex-5-yl-urea] | 92 nM | 60 nM |  |  |
| CC(NC(=O)NC1CC2(CC2)C1)c1ccnc(OC(F)F)c1 (racemic) [Example 139, (±)-1-[1-(2-Difluoromethoxy-pyridin-4-yl)-ethyl]-3-spiro[2.3]hex-5-yl-urea] | 365 nM | 186 nM |  |  |
| CC(NC(=O)NC1CC2(CC2)C1)c1cccc(C(F)(F)F)c1 (racemic) [Example 140, (±)-1-Spiro[2.3]hex-5-yl-3-[1-(3-trifluoromethyl-phenyl)-ethyl]-urea] | 59 nM | 27 nM |  |  |
| CC(NC(=O)NC1CC2(CC2)C1)c1cccc(OC(F)(F)F)c1 (racemic) [Example 141, (±)-1-Spiro[2.3]hex-5-yl-3-[1-(3-trifluoromethoxy-phenyl)-ethyl]-urea] | 26 nM | 22 nM |  |  |
| O=C(NC1CC2(CC2)C1)NC(CO)c1cccc(C(F)(F)F)c1 (racemic) [Example 143, (±)-1-[2-Hydroxy-1-(3-trifluoromethyl-phenyl)-ethyl]-3-spiro[2.3]hex-5-yl-urea] | 61 nM | 42 nM |  |  |
| CC(NC(=O)NC1CC2(CC2)C1)c1cc(OCC(F)(F)F)ncn1 (racemic) [Example 144, (±)-1-Spiro[2.3]hex-5-yl-3-{1-[6-(2,2,2-trifluoro-ethoxy)-pyrimidin-4-yl]-ethyl}-urea] | 119 nM | 96 nM |  |  |
| Cc1nc(OCC(F)(F)F)cc(C(C)NC(=O)NC2CC3(CC3)C2)n1 (racemic) [Example 145, (±)-1-{1-[2-Methyl-6-(2,2,2-trifluoro-ethoxy)-pyrimidin-4-yl]-ethyl}-3-spiro[2.3]hex-5-yl-urea] | 80 nM | 57 nM |  |  |
| O=C(NC1CC2(CC2)C1)NC(c1cccc(C(F)(F)F)c1)C(F)F (racemic) [Example 146, (±)-1-[2,2-Difluoro-1-(3-trifluoromethyl-phenyl)-ethyl]-3-spiro[2.3]hex-5-yl-urea] | 6.6 nM | 4.2 nM |  |  |
| COCC(NC(=O)NC1CC2(CC2)C1)c1cccc(C(F)(F)F)c1 (racemic) [Example 147, (±)-1-[2-Methoxy-1-(3-trifluoromethyl-phenyl)-ethyl]-3-spiro[2.3]hex-5-yl-urea] | 23 nM | 18 nM |  |  |
| COc1c(OCC(F)(F)F)ncnc1C(C)NC(=O)NC1CC2(CC2)C1 (racemic) [Example 152, (±)-1-{1-[5-Methoxy-6-(2,2,2-trifluoro-ethoxy)-pyrimidin-4-yl]-ethyl}-3-spiro[2.3]hex-5-yl-urea] | 532 nM | 520 nM |  |  |
| COCC(NC(=O)NC1CC2(CC2)C1)c1ccnc(OCC(F)(F)F)c1 (racemic) [Example 154, (±)-1-{2-Methoxy-1-[2-(2,2,2-trifluoro-ethoxy)-pyridin-4-yl]-ethyl}-3-spiro[2.3]hex-5-yl-urea] | 24 nM | 8.1 nM |  |  |
| CC(NC(=O)NC1CC2(C1)CC(F)(F)C2)c1cccc(C(F)(F)F)c1 (racemic) [Example 161, (±)-1-(6,6-Difluoro-spiro[3.3]hept-2-yl)-3-[1-(3-trifluoromethyl-phenyl)-ethyl]-urea] | 97 nM | 78 nM |  |  |
| O=C(NC1CC2(CCC2)C1)NC(c1cccc(C(F)(F)F)c1)c1c[nH]nn1 (racemic) [Example 162, (±)-1-Spiro[3.3]hept-2-yl-3-[(1H-[1,2,3]triazol-4-yl)-(3-trifluoromethyl-phenyl)-methyl]-urea] | 124 nM | 120 nM |  |  |
| Cn1nnnc1C(NC(=O)NC1CC2(CCC2)C1)c1cccc(C(F)(F)F)c1 (racemic) [Example 163, (±)-1-[(1-Methyl-1H-tetrazol-5-yl)-(3-trifluoromethyl-phenyl)-methyl]-3-spiro[3.3]hept-2-yl-urea] | 282 nM | 204 nM |  |  |
| Cn1nnc(C(NC(=O)NC2CC3(CCC3)C2)c2cccc(C(F)(F)F)c2)n1 (racemic) [Example 164, (±)-1-[(2-Methyl-2H-tetrazol-5-yl)-(3-trifluoromethyl-phenyl)-methyl]-3-spiro[3.3]hept-2-yl-urea] | 619 nM | 267 nM |  |  |
| Cn1nncc1C(NC(=O)NC1CC2(CCC2)C1)c1cccc(C(F)(F)F)c1 (racemic) [Example 165, (±)-1-[(3-Methyl-3H-[1,2,3]triazol-4-yl)-(3-trifluoromethyl-phenyl)-methyl]-3-spiro[3.3] hept-2-yl-urea] | 289 nM | 145 nM |  |  |
| CC(NC(=O)NC1CC2(CC(I)C2)C1)c1ccnc(OC(F)F)c1 (racemic) [Example 166, (±)-1-[1-(2-Difluoromethoxy-pyridin-4-yl)-ethyl]-3-(6-iodo-spiro[3.3]hept-2-yl)-urea] | 474 nM | 889 nM |  |  |
| O=C(NCc1cccc(C(F)(F)F)c1)NC1CC2(C1)CC2(F)F (single isomer, unassigned) [Example 4, 1-(1,1-Difluoro-spiro[2.3]hex-5-yl)-3-(3-trifluoromethyl-benzyl)-urea] |  |  | 152 nM | 175 nM |
| O=C(NCc1cccc(C(F)(F)F)c1)NC1CC2(C1)CC2(F)F (single isomer, unassigned) [Example 5, 1-(1,1-Difluoro-spiro[2.3]hex-5-yl)-3-(3-trifluoromethyl-benzyl)-urea] | 156 nM |  |  | 82 nM |
| C[C@@H](NC(=O)NC1CC2(CCC2)C1)c1ccnc(OC(F)F)c1 (single isomer, unassigned) [Example 167] | 1750 nM | 1280 nM |  |  |
